According to ChEMBL document CHEMBL1938230, “6-Position optimization of tricyclic 4-quinolone-based inhibitors of glycogen synthase kinase-3β: discovery of nitrile derivatives with picomolar potency” (Bioorg Med Chem Lett, 2012):

How the values were obtained:
[1] = molecular target: Serine/threonine-protein kinase tousled-like 2 (Homo sapiens) (UniProt Q86UE8); experiment: Inhibition of human TLK2 in HL-60 cells lysate assessed as reduction of labeling of acyl-phosphate ATP probe at 100 nM; format: cell-free
Serine/threonine-protein kinase tousled-like 2 (Homo sapiens), sequence (Q86UE8 whole entry, looked up): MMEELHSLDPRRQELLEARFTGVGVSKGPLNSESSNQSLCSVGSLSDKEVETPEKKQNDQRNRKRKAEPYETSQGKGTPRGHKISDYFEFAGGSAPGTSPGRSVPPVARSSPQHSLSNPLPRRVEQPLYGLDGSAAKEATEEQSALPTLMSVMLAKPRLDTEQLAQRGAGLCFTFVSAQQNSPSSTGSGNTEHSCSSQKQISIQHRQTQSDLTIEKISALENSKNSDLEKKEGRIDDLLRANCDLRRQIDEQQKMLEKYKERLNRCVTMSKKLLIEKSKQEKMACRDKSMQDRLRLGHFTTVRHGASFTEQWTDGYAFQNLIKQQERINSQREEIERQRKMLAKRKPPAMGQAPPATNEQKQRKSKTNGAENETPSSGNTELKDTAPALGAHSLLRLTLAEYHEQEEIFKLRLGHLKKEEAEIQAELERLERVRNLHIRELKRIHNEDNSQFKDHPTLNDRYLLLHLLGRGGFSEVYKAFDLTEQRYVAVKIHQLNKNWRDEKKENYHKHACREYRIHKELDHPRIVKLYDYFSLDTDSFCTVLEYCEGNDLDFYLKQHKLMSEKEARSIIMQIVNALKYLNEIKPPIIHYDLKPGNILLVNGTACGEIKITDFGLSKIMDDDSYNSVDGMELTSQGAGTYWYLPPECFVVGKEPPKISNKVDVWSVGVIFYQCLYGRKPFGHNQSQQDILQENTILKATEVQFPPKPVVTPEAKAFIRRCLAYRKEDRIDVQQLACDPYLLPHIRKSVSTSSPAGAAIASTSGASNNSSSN

[2] = molecular target: Serine/threonine-protein kinase Nek7 (Homo sapiens) (UniProt Q8TDX7); experiment: Inhibition of human NEK7 in HL-60 cells lysate assessed as reduction of labeling of acyl-phosphate ATP probe at 100 nM; format: cell-free
Serine/threonine-protein kinase Nek7 (Homo sapiens), sequence (Q8TDX7 whole entry, looked up, the tested form may be a part): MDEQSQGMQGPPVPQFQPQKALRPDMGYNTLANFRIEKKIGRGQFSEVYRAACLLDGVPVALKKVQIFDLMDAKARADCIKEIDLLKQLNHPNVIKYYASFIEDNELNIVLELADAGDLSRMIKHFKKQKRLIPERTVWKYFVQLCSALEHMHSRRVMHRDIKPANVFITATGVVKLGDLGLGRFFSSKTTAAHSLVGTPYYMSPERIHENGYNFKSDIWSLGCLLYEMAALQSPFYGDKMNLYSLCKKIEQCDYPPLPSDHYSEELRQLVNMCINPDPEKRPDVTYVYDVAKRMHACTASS

[3] = molecular target: Phosphatidylinositol 4-phosphate 3-kinase C2 domain-containing subunit beta (Homo sapiens) (UniProt O00750); experiment: Inhibition of human PIK3C2B in HL-60 cells lysate assessed as reduction of labeling of acyl-phosphate ATP probe at 100 nM; format: cell-free
[4] = molecular target: Serine/threonine-protein kinase ATR (Homo sapiens) (UniProt Q13535); experiment: Inhibition of human ATR in HL-60 cells lysate assessed as reduction of labeling of acyl-phosphate ATP probe at 100 nM; format: cell-free
[5] = molecular target: Phosphatidylinositol 3-kinase catalytic subunit type 3 (Homo sapiens) (UniProt Q8NEB9); experiment: Inhibition of human PIK3C3 in HL-60 cells lysate assessed as reduction of labeling of acyl-phosphate ATP probe at 100 nM; format: cell-free
Phosphatidylinositol 3-kinase catalytic subunit type 3 (Homo sapiens), sequence (Q8NEB9 whole entry): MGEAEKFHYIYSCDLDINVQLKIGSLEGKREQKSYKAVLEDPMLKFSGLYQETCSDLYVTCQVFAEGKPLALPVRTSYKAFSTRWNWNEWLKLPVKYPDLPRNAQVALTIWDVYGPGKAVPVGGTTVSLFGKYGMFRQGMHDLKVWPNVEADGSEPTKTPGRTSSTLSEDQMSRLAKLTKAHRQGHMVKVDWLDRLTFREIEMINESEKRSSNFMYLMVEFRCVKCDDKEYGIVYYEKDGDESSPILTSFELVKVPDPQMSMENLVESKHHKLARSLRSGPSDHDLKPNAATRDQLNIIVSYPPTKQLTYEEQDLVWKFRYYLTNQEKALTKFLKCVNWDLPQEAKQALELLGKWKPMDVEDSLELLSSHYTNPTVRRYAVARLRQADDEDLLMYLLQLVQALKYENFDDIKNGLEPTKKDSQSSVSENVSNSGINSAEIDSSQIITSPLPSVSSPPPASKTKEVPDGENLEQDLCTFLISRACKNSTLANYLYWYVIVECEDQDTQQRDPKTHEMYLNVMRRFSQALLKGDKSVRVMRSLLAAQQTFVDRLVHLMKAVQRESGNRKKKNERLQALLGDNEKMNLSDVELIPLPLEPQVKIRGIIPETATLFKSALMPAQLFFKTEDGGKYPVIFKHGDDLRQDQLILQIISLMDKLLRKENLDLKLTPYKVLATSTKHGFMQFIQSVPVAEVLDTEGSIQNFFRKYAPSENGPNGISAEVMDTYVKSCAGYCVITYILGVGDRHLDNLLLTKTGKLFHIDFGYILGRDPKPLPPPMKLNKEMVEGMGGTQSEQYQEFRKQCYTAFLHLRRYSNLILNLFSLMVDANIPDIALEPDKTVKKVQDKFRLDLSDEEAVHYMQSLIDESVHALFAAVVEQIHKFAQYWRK

[6] = molecular target: Wee1-like protein kinase (Homo sapiens) (UniProt P30291); experiment: Inhibition of human Wee1 in HL-60 cells lysate assessed as reduction of labeling of acyl-phosphate ATP probe at 100 nM; format: cell-free
[7] = molecular target: T1, Serine/threonine-protein kinase 3 (Homo sapiens) (UniProt Q13188); experiment: Inhibition of human MST2 in HL-60 cells lysate assessed as reduction of labeling of acyl-phosphate ATP probe at 100 nM; format: cell-free
T1 sequence (whole entry): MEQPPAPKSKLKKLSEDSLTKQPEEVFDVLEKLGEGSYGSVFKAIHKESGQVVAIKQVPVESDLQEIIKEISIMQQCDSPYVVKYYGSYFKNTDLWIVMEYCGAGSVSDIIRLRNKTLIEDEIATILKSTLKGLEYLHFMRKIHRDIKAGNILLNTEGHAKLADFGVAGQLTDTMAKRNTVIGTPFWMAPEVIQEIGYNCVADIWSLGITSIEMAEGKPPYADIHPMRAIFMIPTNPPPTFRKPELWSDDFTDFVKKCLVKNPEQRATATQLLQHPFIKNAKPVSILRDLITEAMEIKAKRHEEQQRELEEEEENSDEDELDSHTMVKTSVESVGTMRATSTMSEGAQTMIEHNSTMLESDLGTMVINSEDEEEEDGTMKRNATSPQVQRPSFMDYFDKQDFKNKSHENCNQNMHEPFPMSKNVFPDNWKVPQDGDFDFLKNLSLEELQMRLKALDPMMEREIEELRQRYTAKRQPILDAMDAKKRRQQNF

[8] = molecular target: T2, Inhibitor of nuclear factor kappa-B kinase subunit beta (Homo sapiens) (UniProt O14920); experiment: Inhibition of human IKK-beta in HL-60 cells lysate assessed as reduction of labelling of acyl-phosphate ATP probe at 100 nM; format: cell-free
T2 sequence (whole entry): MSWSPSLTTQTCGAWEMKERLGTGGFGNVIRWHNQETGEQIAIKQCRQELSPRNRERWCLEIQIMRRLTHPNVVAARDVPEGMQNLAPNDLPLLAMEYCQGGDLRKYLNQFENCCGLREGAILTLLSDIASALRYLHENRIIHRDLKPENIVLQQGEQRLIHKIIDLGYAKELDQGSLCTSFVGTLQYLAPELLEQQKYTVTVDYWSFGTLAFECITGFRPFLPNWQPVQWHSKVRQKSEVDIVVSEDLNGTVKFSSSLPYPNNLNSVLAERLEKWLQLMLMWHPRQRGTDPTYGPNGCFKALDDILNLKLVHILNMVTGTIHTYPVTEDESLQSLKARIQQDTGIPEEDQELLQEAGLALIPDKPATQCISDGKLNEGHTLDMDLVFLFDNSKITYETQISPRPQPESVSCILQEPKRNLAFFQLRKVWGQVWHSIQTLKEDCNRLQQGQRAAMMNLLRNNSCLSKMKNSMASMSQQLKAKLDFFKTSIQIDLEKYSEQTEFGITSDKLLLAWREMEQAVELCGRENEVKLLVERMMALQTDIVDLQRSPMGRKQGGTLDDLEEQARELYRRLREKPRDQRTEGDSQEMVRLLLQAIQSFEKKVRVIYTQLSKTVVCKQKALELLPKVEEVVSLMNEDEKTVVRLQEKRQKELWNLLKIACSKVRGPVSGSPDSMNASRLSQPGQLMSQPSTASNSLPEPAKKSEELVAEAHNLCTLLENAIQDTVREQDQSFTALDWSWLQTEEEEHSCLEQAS

[9] = molecular target: c-Jun N-terminal kinase, JNK (Homo sapiens) (UniProt P45983+P53779+P45984); experiment: Inhibition of human JNK1/JNK2/JNK3 in HL-60 cells lysate assessed as reduction of labeling of acyl-phosphate ATP probe at 100 nM; format: cell-free
[10] = molecular target: Phosphatidylinositol 4,5-bisphosphate 3-kinase catalytic subunit beta isoform (Homo sapiens) (UniProt P42338); experiment: Inhibition of human PIK3CB in HL-60 cells lysate assessed as reduction of labeling of acyl-phosphate ATP probe at 100 nM; format: cell-free
Phosphatidylinositol 4,5-bisphosphate 3-kinase catalytic subunit beta isoform (Homo sapiens), sequence (P42338 whole entry, looked up, canonical isoform): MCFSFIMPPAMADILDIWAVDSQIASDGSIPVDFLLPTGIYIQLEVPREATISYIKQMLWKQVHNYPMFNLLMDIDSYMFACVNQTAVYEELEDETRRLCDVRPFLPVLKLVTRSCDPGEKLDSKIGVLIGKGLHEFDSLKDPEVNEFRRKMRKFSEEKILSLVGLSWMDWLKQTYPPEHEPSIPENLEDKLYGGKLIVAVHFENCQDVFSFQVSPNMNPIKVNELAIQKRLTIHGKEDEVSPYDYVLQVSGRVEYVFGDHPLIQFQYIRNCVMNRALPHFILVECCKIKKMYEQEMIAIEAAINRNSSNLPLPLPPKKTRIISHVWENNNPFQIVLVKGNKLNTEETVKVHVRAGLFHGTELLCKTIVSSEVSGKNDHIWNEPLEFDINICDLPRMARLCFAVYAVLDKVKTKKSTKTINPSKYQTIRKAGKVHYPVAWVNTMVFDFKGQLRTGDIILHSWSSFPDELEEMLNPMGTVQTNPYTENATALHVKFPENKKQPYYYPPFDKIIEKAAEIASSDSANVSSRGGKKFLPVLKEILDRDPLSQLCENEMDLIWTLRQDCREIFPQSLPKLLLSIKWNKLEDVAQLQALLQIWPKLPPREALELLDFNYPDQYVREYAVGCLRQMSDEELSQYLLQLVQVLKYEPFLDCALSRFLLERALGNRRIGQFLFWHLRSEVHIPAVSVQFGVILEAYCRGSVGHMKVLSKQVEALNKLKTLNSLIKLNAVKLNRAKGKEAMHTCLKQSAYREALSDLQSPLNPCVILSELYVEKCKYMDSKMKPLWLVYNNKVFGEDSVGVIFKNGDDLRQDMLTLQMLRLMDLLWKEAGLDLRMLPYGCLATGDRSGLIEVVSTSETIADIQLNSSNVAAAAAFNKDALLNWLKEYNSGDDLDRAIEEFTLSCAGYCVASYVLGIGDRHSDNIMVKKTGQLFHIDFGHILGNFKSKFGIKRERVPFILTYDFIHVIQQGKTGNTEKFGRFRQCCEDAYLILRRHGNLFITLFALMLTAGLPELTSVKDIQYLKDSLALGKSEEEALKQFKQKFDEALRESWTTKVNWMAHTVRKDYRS

[11] = molecular target: Interleukin-1 receptor-associated kinase 1 (Homo sapiens) (UniProt P51617); experiment: Inhibition of human IRAK1 in HL-60 cells lysate assessed as reduction of labeling of acyl-phosphate ATP probe at 100 nM; format: cell-free
Interleukin-1 receptor-associated kinase 1 (Homo sapiens), sequence (P51617 whole entry, looked up): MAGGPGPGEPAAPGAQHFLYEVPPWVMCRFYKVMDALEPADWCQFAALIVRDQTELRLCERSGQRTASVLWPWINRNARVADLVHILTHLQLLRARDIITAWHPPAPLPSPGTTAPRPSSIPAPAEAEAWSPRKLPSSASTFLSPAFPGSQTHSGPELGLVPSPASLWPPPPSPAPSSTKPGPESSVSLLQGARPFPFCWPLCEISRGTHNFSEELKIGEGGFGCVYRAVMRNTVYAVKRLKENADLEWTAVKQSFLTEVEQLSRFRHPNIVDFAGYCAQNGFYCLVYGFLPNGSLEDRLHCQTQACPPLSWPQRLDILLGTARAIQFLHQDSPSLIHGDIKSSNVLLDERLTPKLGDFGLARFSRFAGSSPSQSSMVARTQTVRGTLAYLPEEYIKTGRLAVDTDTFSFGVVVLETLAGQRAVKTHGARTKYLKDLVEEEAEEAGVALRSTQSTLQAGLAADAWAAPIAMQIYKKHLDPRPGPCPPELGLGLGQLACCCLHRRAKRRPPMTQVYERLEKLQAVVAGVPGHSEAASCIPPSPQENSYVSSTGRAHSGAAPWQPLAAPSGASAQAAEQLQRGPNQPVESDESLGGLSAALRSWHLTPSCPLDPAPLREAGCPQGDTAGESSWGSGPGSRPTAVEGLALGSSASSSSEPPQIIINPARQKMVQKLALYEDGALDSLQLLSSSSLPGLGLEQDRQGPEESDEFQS

[12] = molecular target: T3, Serine/threonine-protein kinase 4 (Homo sapiens) (UniProt Q13043); experiment: Inhibition of human MST1 in HL-60 cells lysate assessed as reduction of labeling of acyl-phosphate ATP probe at 100 nM; format: cell-free
T3 sequence (whole entry): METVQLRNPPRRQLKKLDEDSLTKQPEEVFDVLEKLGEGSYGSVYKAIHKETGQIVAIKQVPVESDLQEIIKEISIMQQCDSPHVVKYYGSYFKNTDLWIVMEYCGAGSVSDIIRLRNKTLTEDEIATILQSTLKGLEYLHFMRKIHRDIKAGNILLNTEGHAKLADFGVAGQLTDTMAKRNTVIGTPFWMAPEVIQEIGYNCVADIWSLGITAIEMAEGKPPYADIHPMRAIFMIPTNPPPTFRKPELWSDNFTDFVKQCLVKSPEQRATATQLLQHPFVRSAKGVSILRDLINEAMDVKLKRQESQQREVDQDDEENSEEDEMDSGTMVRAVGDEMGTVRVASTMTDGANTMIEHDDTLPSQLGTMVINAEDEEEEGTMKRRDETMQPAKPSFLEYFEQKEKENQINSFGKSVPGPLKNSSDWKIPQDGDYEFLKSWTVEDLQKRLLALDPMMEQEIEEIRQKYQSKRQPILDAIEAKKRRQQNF

[13] = molecular target: Serine/threonine-protein kinase B-raf (Homo sapiens) (UniProt P15056); experiment: Inhibition of human BRAF in HL-60 cells lysate assessed as reduction of labeling of acyl-phosphate ATP probe at 100 nM; format: cell-free
Serine/threonine-protein kinase B-raf (Homo sapiens), sequence (P15056 whole entry): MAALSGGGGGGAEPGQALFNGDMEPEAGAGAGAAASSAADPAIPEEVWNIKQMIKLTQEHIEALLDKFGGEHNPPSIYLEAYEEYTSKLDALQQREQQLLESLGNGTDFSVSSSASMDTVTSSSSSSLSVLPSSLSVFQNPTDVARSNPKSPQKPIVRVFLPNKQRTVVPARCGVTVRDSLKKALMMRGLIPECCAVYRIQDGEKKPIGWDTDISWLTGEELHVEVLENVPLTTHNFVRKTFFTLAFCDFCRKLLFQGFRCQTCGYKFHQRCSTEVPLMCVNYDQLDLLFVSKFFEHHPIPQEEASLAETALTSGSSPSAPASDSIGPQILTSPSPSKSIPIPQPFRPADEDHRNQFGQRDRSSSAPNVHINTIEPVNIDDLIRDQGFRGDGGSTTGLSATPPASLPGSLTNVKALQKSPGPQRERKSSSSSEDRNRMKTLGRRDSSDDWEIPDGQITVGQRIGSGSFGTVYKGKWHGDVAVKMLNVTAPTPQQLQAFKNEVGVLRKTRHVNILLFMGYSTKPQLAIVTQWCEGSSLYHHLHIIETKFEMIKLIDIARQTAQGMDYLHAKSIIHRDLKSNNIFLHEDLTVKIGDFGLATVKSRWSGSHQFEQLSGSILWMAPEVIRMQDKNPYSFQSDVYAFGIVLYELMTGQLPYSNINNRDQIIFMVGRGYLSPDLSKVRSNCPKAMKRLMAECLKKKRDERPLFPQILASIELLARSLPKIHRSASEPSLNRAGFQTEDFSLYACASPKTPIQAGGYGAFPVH

[14] = molecular target: Glycogen synthase kinase-3 beta (Homo sapiens, UniProt P49841); experiment: Inhibition of GSK3-beta
Glycogen synthase kinase-3 beta, sequence (P49841 whole entry): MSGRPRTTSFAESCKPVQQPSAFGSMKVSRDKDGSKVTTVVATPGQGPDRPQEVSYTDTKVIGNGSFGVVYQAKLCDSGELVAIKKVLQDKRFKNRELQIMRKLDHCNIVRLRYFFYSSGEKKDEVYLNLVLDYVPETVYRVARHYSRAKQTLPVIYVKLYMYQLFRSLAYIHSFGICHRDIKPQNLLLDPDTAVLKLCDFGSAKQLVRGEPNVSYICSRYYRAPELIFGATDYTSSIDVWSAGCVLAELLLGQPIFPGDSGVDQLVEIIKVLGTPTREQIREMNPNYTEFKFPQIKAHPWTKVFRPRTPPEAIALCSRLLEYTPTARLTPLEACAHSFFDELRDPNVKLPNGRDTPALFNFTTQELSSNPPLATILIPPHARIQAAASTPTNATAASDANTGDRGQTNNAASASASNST

inhibition [1]	inhibition [2]	inhibition [3]	inhibition [4]	inhibition [5]	inhibition [6]	inhibition [7]	inhibition [8]	inhibition [9]	inhibition [10]	inhibition [11]	inhibition [12]	inhibition [13]	IC50 [14]	SMILES
< 35%	< 35%	< 35%	< 35%	< 35%	< 35%	< 35%	< 35%	< 35%	< 35%	< 35%	< 35%	< 35%	0.6 nM	C[C@H]1COc2c(NCCCc3ccccn3)c(F)c(N)c3c(=O)c(C#N)cn1c23
< 35%	< 35%	< 35%	< 35%	< 35%	< 35%	< 35%	< 35%	< 35%	< 35%	< 35%	< 35%	< 35%	0.86 nM	C[C@H]1COc2c(NCCCn3cccn3)c(F)c(N)c3c(=O)c(C#N)cn1c23
< 35%	< 35%	< 35%	< 35%	< 35%	< 35%	< 35%	< 35%	< 35%	< 35%	< 35%	< 35%	< 35%	10 nM	C[C@H]1COc2c(NCCCc3ccccn3)c(F)c(N)c3c(=O)c(C(=O)O)cn1c23
< 35%	< 35%	< 35%	< 35%	< 35%	< 35%	< 35%	< 35%	< 35%	< 35%	< 35%	< 35%	< 35%	16 nM	C[C@H]1COc2c(NCCCn3cccn3)c(F)c(N)c3c(=O)c(C(=O)O)cn1c23
